Publication PMC3151248, “High-Throughput Identification of Potential Minor Histocompatibility Antigens by MHC Tetramer-Based Screening: Feasibility and Limitations” (PLoS ONE, 2011)
Peptide text beside a SMILES is read from it.

System: pMHC tetramer positive T-cell lines
Settings: 18 h

| SMILES | IC50 [nM] |
| --- | --- |
| CC[C@H](C)[C@H](NC(=O)[C@@H](N)CO)C(=O)N[C@@H](CCC(N)=O)C(=O)N[C@@H](CC(N)=O)C(=O)N[C@@H](Cc1ccc(O)cc1)C(=O)N[C@@H](Cc1c[nH]cn1)C(=O)N1CCC[C@H]1C(=O)N[C@@H](Cc1ccccc1)C(=O)N[C@@H](C)C(=O)O [P37 DOCK2SIQ] (H-SIQNYHPFA-OH) | ~500 |
| CC(C)C[C@H](NC(=O)[C@H](CC(C)C)NC(=O)[C@H](CC(=O)O)NC(=O)[C@H](CC(=O)O)NC(=O)[C@H](Cc1c[nH]cn1)NC(=O)[C@H](CC(C)C)NC(=O)[C@@H](N)C(C)C)C(=O)N[C@@H](CCC(=O)O)C(=O)N[C@@H](C)C(=O)O [P46 HMHA1VLH] (H-VLHDDLLEA-OH) | ~0.05 |

Second part, the molecule after the results:

| IC50 [nM] | SMILES |
| --- | --- |
| ~500 | CC(C)C[C@H](NC(=O)[C@@H]1CCCN1C(=O)[C@H](CC(C)C)NC(=O)[C@H](C)NC(=O)[C@H](C)NC(=O)[C@H](Cc1c[nH]c2ccccc12)NC(=O)[C@H](CC(C)C)NC(=O)[C@@H]1CCCN1C(=O)[C@H](CC(C)C)NC(=O)[C@H](CC(C)C)NC(=O)[C@@H](N)CCCNC(=N)N)C(=O)O [P104 ZFP36L2RLL] (H-RLLPLWAALPL-OH) |
| ~0.05 | CC[C@H](C)[C@H](N)C(=O)N[C@@H](CCSC)C(=O)N[C@@H](C)C(=O)N[C@H](C(=O)N[C@@H](CCC(=O)O)C(=O)N[C@@H](CC(C)C)C(=O)N[C@@H](C)C(=O)N[C@@H](CCC(=O)O)C(=O)N[C@@H](CC(C)C)C(=O)O)[C@@H](C)CC [P218 MAP4K1IMA] (H-IMAIELAEL-OH) |
| ~5 | CSCC[C@H](NC(=O)[C@@H](N)CO)C(=O)N[C@@H](CS)C(=O)N[C@@H](CCCNC(=N)N)C(=O)N[C@@H](Cc1ccccc1)C(=O)N[C@@H](CO)C(=O)N1CCC[C@H]1C(=O)N[C@@H](CC(C)C)C(=O)N[C@H](C(=O)N[C@@H](CC(C)C)C(=O)O)[C@@H](C)O [P309 HSPA6SMC] (H-SMCRFSPLTL-OH) |

Same assay, conditions: read-out: IC50, peptide concentration required for T-cell recognition (IFN γ production); HLA-A2+ T2 cells pulsed with peptide, 10-fold dilution steps from 10ug/ml; 18 h; IFN γ ELISA; value given for the group of cell lines

| SMILES | IC50 [nM] |
| --- | --- |
| CSCC[C@H](NC(=O)[C@@H](N)CCCCN)C(=O)N[C@@H](CC(N)=O)C(=O)N[C@H](C(=O)N[C@@H](Cc1ccccc1)C(=O)N[C@@H](CC(=O)O)C(=O)N[C@H](C(=O)N[C@@H](CC(N)=O)C(=O)N[C@@H](CC(C)C)C(=O)O)[C@@H](C)O)C(C)C [P203 ATP2A3KMN] (H-KMNVFDTNL-OH) | ~500 |
| CC[C@H](C)[C@H](NC(=O)[C@H](CC(=O)O)NC(=O)[C@H](CCSC)NC(=O)CNC(=O)[C@H](Cc1ccccc1)NC(=O)[C@H](CC(C)C)NC(=O)[C@H](CCC(=O)O)NC(=O)[C@H](Cc1c[nH]cn1)NC(=O)[C@H](CC(C)C)NC(=O)[C@@H](NC(=O)[C@@H](N)CCCCN)C(C)C)C(=O)O [P91 FLT3KVL] (H-KVLHELFGMDI-OH) | ~5 |
